# Measurements taken from patent US6423519B1, “Compositions and methods for inhibiting fungal growth” (GPC Biotech Inc., priority 1998, dated 2002).
# Read-outs that look alike come from different tables or passages of the source.
# Key:
# Hu FT = Hu FT (Homo sapiens, UniProt P49356); assay: Human FT inhibition (Hu FT); assay type: biochemical; conditions: Table 3 Piperidine Analogs
# C. albicans GGPTase = biological target: T1, C. albicans GGPTase (Candida albicans, UniProt Q8J224+Q9Y764); assay: biochemical; conditions: read-out: IC50 (nM) Ca GG
# T1 sequence (Q9Y764 1-398): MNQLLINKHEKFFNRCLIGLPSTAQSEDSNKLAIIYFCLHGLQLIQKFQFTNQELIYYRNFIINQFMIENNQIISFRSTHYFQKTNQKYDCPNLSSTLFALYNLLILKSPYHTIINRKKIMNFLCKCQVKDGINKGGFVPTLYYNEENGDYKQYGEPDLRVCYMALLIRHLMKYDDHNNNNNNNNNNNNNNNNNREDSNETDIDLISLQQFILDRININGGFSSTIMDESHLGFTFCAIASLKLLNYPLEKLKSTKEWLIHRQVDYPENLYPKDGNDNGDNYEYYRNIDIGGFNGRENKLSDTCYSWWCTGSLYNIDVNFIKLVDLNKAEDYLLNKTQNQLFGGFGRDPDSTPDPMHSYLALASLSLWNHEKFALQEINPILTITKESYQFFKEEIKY
# T1 sequence (Q8J224 1-306): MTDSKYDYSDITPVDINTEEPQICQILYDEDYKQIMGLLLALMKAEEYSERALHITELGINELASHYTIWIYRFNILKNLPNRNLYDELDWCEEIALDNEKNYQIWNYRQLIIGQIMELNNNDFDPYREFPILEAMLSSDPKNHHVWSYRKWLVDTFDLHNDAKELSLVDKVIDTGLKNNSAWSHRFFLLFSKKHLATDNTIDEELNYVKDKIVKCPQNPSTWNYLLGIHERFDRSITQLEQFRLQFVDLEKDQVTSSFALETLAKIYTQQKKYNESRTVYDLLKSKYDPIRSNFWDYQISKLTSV
# Experimental: Plate test compounds (10 μL per well) at predetermined concentration in 50% DMSO. For background control (blank) and reaction control (negative), add 10 μL of 200 μM GGPP and 10 μL 50% DMSO, respectively. Prepare assay buffer: 50 mM Tris, pH7.5, 20 mM KCL, 5 mM MgCl2, 5 μM ZnCl2, 0.5 mM Zw(3-14), 2 mM DTT and 0.1 mg/mL BSA.
# Add 20 μL of C. albicans GGPTase and ^3H-GGPP in assay buffer to test compound. Preincubate enzyme and ^3H-GGPP with test compound for 15 minutes at room temperature. Add 20 μL C. albicans Rho in assay buffer. Incubate for 30 minutes at room temperature. Final assay conditions are 2 nM C. albicans GGPTase, 250 nM ^3H-GGPP and 250 nM C. albicans Rho.
# Add 100 μL 15 mM GGPP, 50 mM Tris, pH7.0 and 2% BSA to quench reaction. Transfer reaction to Nickel chelate FlashPlate. Allow his-tagged C. albcians Rho to capture onto plate. Rinse plate 1× with 200 μL 20 mM Tris, pH7.0. Read in TOPCOUNT.
# human GGTase = human GGTase (Homo sapiens, UniProt P53609); assay: Human GGTase inhibition (Hu GG); assay type: biochemical; conditions: read-out: IC50 (nM) Hu GG
# Excerpt: As described below, a variety of different compounds were synthesized and tested for inhibitory activity against human and Candida GGTase. Exemplary synthesis schemes for generating prenyltransferase inhibitors useful in the methods and compositions of the present invention are shown in FIGS. 1-56. Tables 1-5 provide Structure-Activity relationship (SAR) data for several different classes of prenyltransferase inhibitors.
# Cryp GG = Cryp GG inhibition; assay type: biochemical
# Asp GG = Asp GG inhibition; assay type: biochemical
# C. albicans = assay: In vitro susceptibility testing of compounds in C. albicans (MIC); assay type: cell-based; conditions: for MIC: Candida albicans, read-out: MIC (μg/mL) C alb; for MIC (μg/mL) C alb: Table 1
# Experimental: 1: Innoculate strain C. albicans strain such as SC5314 into 20 mL of the appropriate medium and incubate at 35° C. with shaking (220 rpm) overnight
# 2: Count the C. albicans cells in a 1:10 dilution of the overnight culture using a haemocytometer.
# 3: Work out the dilution factor required to bring the cell number to 1×10^3 cells/100 μL (equivalent to 1×10^4 cells/mL) then add the required volume of the overnight culture to 25 mL media in a falcon tube.
# 4: Vortex the diluted cells and immediately pipette 100 μL of the cell suspension to each of the required rows of a 96 well plate using the multipipettor.
# 5: Prepare each of the 100×stock solutions for the compounds to be tested in DMSO in the required concentration range in Eppendorf tubes.
# 6: The dilution series for each of the compounds may now be prepared in sequence:
# For each compound—start with highest dilution. Add 10 μL compound in DMSO to the 490 μL of appropriate media. Immediately vortex and add 100 μL to the appropraite row of cells on the 96-well plate. Repeat this process for the next and subsequent concentrations of this compound before starting on the dilution series for additional compounds.
# 7: When complete cover the 96-well plate with an acetate sheet and incubate at 35° C. Inspect visually and record results for both plates at the 24 hr and 48 hr. The MIC corresponds to the concentration of compound where no visible growth is observed.
# IMR90 Cell Line = assay: Cytotoxicity of GGPTase inhibitors in human cells, IMR90 (MTT); assay type: cell-based; conditions: IMR-90, 168 h, read-out: IC50 (nM) IMR90
# Experimental: (§1) (A) Plate out cells at predetermined concentration in a volume of 150 μl.
# (§2) (B) Allow cells to adhere to plate for twenty four hours
# (§3) (C) Add compounds to cells at predetermined concentration (62.5 μg/mL down four-fold, 8 dilutions) n=2
# (§4) (D) Cells are exposed to drug for 7 days for the IMR90 Cell Line, and a period of 3 days for the H460 Cell Line.
# 2. IMR90 Cells have 3-{4,5-Dimethylthiazol-2-yl}-2,5-diphenyltetrazolium bromide (MTT) added to them for three hours prior to final read out. After the three hours, media and MTT are removed and MTT crystals are solubilized in 100% DMSO for final OD read.
# H460 Cell Line = assay: Cytotoxicity of GGPTase inhibitors in human cells, H460 (Sulforhodamine B); assay type: cell-based; conditions: NCI-H460, 72 h, read-out: IC50 (nM) H460
# Experimental: as §1, §2, §3, §4
# (E) 1. H460 Cells are fixed in TCA, rinsed, stained with Sulforhodamine B stain, and the stain is solubilized for a final OD read.
IC50 (Hu FT),IC50 (C. albicans GGPTase; Table 3 Piperidine Analogs),IC50 (human GGTase; Table 3 Piperidine Analogs),SMILES,further results
> 1000 nM,< 100 nM,> 1000 nM,N[C@@H](CS)C(=O)N1CCC(C(=O)NCc2cccc(-c3ccccc3)c2)(c2ccccc2)CC1 [Compound 53e],
> 1000 nM,< 100 nM,> 1000 nM,N[C@@H](CS)C(=O)N1CCC(C(=O)NCCN2CCCC2)(c2ccccc2)CC1 [Compound 53g],
> 1000 nM,< 100 nM,> 1000 nM,N[C@@H](CS)C(=O)N1CCC(C(=O)NCc2nc3ccccc3[nH]2)(c2ccccc2)CC1 [Compound 53h],
> 1000 nM,< 100 nM,< 100 nM,CC(C)C[C@H](NC(=O)C1(c2ccccc2)CCN(C(=O)[C@@H](N)CS)CC1)C(N)=O [Compound 53i],
> 1000 nM,< 100 nM,> 1000 nM,N[C@@H](CS)C(=O)N1CCC(C(=O)NCCCn2ccnc2)(c2ccccc2)CC1 [Compound 53j],
> 1000 nM,< 100 nM,> 1000 nM,N#CC1CCC(CNC(=O)C2(c3ccccc3)CCN(C(=O)[C@@H](N)CS)CC2)CC1 (stereo partly shown) [Compound 53n],
> 1000 nM,< 100 nM,< 1000 nM,N[C@@H](CS)C(=O)N1CCC(C(=O)NCc2cccc(OC(F)(F)F)c2)(c2ccccc2)CC1 [Compound 53p],
> 1000 nM,< 100 nM,> 1000 nM,N[C@@H](CS)C(=O)N1CCC(C(=O)NCc2ccc3c(c2)OCO3)(c2ccccc2)CC1 [Compound 53q],
> 1000 nM,< 100 nM,> 1000 nM,N[C@@H](CS)C(=O)N1CCC(C(=O)NCc2ccc(F)cc2F)(c2ccccc2)CC1 [Compound 53r],
> 1000 nM,< 100 nM,> 500 nM,COc1ccccc1CNC(=O)C1(c2ccccc2)CCN(C(=O)[C@@H](N)CS)CC1 [Compound 53u],
> 1000 nM,< 100 nM,> 500 nM,N[C@@H](CS)C(=O)N1CCC(C(=O)NCc2cccc3ccccc23)(c2ccccc2)CC1 [Compound 53w],
,,,NC[C@H](NC(=O)[C@@H](N)CS)C(=O)NCc1cccc2ccccc12 [Compound 89a],IC50 (Cryp GG; Table 1): > 1000 nM; IC50 (Cryp GG; Table 1 Peptide Analogs): > 1000 nM; MIC (C. albicans): > 200 µg/mL; MIC (μg/mL) C alb (C. albicans): >200 µg/mL; IC50 (C. albicans GGPTase; Table 1): < 1000 nM; IC50 (C. albicans GGPTase; Table 1 Peptide Analogs): < 1000 nM; IC50 (human GGTase; Table 1): > 1000 nM; IC50 (human GGTase; Table 1 Peptide Analogs): > 1000 nM
,,,NC[C@H](NC(=O)[C@@H](N)CS)C(=O)NCc1cccc(-c2ccccc2)c1 [Compound 89b],MIC (C. albicans): > 200 µg/mL; MIC (μg/mL) C alb (C. albicans): >200 µg/mL; IC50 (C. albicans GGPTase; Table 1): < 500 nM; IC50 (C. albicans GGPTase; Table 1 Peptide Analogs): < 500 nM; IC50 (human GGTase; Table 1): > 1000 nM; IC50 (human GGTase; Table 1 Peptide Analogs): > 1000 nM
,,,NC[C@H](NC(=O)[C@@H](N)CS)C(=O)N1CCC(C(=O)NCc2ccncc2)(c2ccccc2)CC1 [Compound 89c],IC50 (Cryp GG; Table 1): > 1000 nM; IC50 (Cryp GG; Table 1 Peptide Analogs): > 1000 nM; IC50 (Asp GG; Table 1): > 1000 nM; IC50 (Asp GG; Table 1 Peptide Analogs): > 1000 nM; IC50 (C. albicans GGPTase; Table 1): < 1000 nM; IC50 (C. albicans GGPTase; Table 1 Peptide Analogs): < 1000 nM; IC50 (human GGTase; Table 1): > 1000 nM; IC50 (human GGTase; Table 1 Peptide Analogs): > 1000 nM

SMILES,IC50 (Hu FT),IC50 (C. albicans GGPTase; Table 3 Piperidine Analogs),IC50 (human GGTase; Table 3 Piperidine Analogs),further results
N[C@@H](CS)C(=O)N1CCC(C(=O)NCCCN2CCOCC2)(c2ccccc2)CC1 [Compound 53f],> 1000 nM,< 500 nM,> 1000 nM,IC50 (Cryp GG; Table 3 Piperidine Analogs): > 1000 nM; IC50 (Asp GG; Table 3 Piperidine Analogs): > 1000 nM
N[C@@H](CS)C(=O)N1CCC(C(=O)NCc2ccncc2)(c2ccccc2)CC1 [Compound 53k],> 1000 nM,< 10 nM,> 1000 nM,IC50 (Cryp GG; Table 3 Piperidine Analogs): > 1000 nM; IC50 (Asp GG; Table 3 Piperidine Analogs): > 1000 nM
N[C@@H](CS)C(=O)N1CCC(C(=O)NCC(=O)Nc2ccc3ccccc3c2)(c2ccccc2)CC1 [Compound 53o],,< 1000 nM,> 1000 nM,IC50 (Cryp GG; Table 3 Piperidine Analogs): > 1000 nM; IC50 (Asp GG; Table 3 Piperidine Analogs): > 1000 nM
N[C@@H](CS)C(=O)N1CCC(C(=O)NC2c3ccccc3-c3ccccc32)(c2ccccc2)CC1 [Compound 53z],> 1000 nM,< 100 nM,> 1000 nM,IC50 (Cryp GG; Table 3 Piperidine Analogs): > 1000 nM; IC50 (Asp GG; Table 3 Piperidine Analogs): > 1000 nM
C[C@H](N)C(=O)N[C@@H](CS)C(=O)N1CCC(C(=O)NCc2ccncc2)(c2ccccc2)CC1 [Compound 96a],,> 1000 nM,> 1000 nM,IC50 (IMR90 Cell Line): > 1000 nM; IC50 (H460 Cell Line): > 1000 nM
C[C@H](N)C(=O)N[C@@H](C)C(=O)N[C@@H](CS)C(=O)N1CCC(C(=O)NCc2ccncc2)(c2ccccc2)CC1 [Compound 96b],,< 1000 nM,> 1000 nM,IC50 (IMR90 Cell Line): > 1000 nM; IC50 (H460 Cell Line): > 1000 nM
